Where a name gives a salt, the structure may show the parent alone. Read-outs that look alike come from different tables or passages of the source.
Assays:
[1] = molecular target: T1, Recombinant human PKC-theta (His-tagged 362-706) (Homo sapiens, UniProt Q04759); experiment: PKC-theta inhibition assay (HTRF KinEASE kit); assay type: biochemical; conditions: STK substrate 525 nM
T1 construct: Recombinant human PKC-theta (His-tagged 362-706); His
In short: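 IC50 values were from 4-parameter logistic fits of percent inhibition, based on acceptor/donor HTRF ratios over 10 semi-log compound doses. Kinase reactions, started with substrate plus ATP, ran 30 min at 25 °C in buffer supplemented with 10 mM MgCl2, 1 mM DTT and 0.1% Tween 20; detection lasted 2 h.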

[2] = test system: IL-2 secretion by human effector memory T cells (TEM); experiment: Effector memory T cells IL-2 release assay (CD3/CD28 stimulation, HTRF IL-2 detection); assay type: cell-based; conditions: Homo sapiens, T-cell, 24 h
In short: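 Human effector memory T cells from healthy-donor buffy coats were exposed in triplicate to ten semi-log doses of compound in 0.1% DMSO. The cells were stimulated and incubated 24 h at 37 °C. Secreted IL-2 in the supernatant was measured by HTRF.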

[3] = molecular target: T2, Recombinant human PKC-delta (His-tagged 345-676) (Homo sapiens, UniProt Q05655); experiment: PKC-delta inhibition assay (HTRF KinEASE kit); assay type: biochemical; conditions: ratio, PKC-theta vs PKC-delta HTRF; for PKC-theta/PKC-delta selectivity (binned): binned A to G
T2 construct: PKC-delta (His-tagged 345-676); His
T2 sequence (Q05655 345-676): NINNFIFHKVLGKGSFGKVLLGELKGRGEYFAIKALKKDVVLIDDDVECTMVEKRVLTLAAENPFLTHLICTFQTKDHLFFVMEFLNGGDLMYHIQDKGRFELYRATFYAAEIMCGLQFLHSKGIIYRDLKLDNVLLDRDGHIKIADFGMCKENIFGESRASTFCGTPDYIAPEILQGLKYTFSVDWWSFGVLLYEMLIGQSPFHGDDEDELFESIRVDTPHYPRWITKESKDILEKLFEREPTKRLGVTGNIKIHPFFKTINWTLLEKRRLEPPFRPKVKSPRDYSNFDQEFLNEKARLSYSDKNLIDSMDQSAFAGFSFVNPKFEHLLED

[4] = ATP 6.5 μM, binned A to H, read-out: PKC-theta HTRF pIC50 (binned) (converted)
[5] = ATP 6.5 μM, read-out: PKC-theta HTRF pIC50 (converted)
[6] = binned A to G, read-out: PKC-theta IL2 pIC50 (binned) (converted)
[7] = read-out: PKC-theta IL2 pIC50 (converted)

T1 sequence (Q04759 362-706): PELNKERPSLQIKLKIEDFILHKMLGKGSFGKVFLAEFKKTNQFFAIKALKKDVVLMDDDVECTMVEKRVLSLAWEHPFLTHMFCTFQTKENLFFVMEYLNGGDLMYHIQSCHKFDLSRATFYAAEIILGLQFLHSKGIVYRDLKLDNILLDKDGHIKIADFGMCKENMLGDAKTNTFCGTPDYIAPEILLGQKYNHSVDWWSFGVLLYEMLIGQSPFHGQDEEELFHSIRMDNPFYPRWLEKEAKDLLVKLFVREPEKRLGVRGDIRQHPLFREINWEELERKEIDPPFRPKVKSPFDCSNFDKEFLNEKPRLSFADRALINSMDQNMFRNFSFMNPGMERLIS

SMILES	IC50 [1, 4]	IC50 [1, 5]	IC50 [2, 6]	IC50 [2, 7]	PKC-theta/PKC-delta selectivity [3]	PKC-theta/PKC-delta selectivity (binned) [3]	IC50 ([1]; PKC-theta HTRF pIC50 (binned), ATP 6.5 μM, binned A to H)	IC50 ([1]; PKC-theta HTRF pIC50, ATP 6.5 μM)
CC[C@@]1(C)C(=O)Nc2nccc(-c3cc(C(C)(F)F)cc(N4CCN[C@@H](C)C4)n3)c21 (single isomer, unassigned) [Example 200]	0.00316 to 0.01 µM	0.00501 µM	0.0316 to 0.1 µM	0.0794 µM	27	C (a ratio of between 20 and 30)		
CC[C@]1(C)C(=O)Nc2nccc(-c3cc(C(C)(F)F)cc(N4CCNC[C@H]4C)n3)c21 (single isomer, unassigned) [Example 201]	0.000316 to 0.001 µM	0.000501 µM	0.00316 to 0.01 µM	0.00794 µM	18	D (a ratio of between 10 and 20)		
CC[C@@]1(C)C(=O)Nc2nccc(-c3cc(C(C)(F)F)cc(N4CCNC[C@H]4C)n3)c21 (single isomer, unassigned) [Example 202]	0.00316 to 0.01 µM	0.00398 µM	0.0316 to 0.1 µM	0.0501 µM	22	C (a ratio of between 20 and 30)		
CC[C@]1(C)C(=O)Nc2nccc(-c3cc(C(C)(F)F)cc(N4CCCNCC4)n3)c21 (single isomer, unassigned) [Example 205]	0.00316 to 0.01 µM	0.00398 µM	0.0316 to 0.1 µM	0.0794 µM	13	D (a ratio of between 10 and 20)		
CC[C@@]1(C)C(=O)Nc2nccc(-c3cc(C(C)(F)F)cc(N4CCCNCC4)n3)c21 (single isomer, unassigned) [Example 206]	0.0316 to 0.1 µM	0.0316 µM	0.316 to 1 µM	0.631 µM	23	C (a ratio of between 20 and 30)		
CC(c1cccc(-c2ccnc3[nH]c(=O)[nH]c23)c1)N(C)C (stereo not drawn) [Example 1]	0.316 to 1 µM	0.501 µM	> 1 µM	10 µM	1	F (a ratio of between 1 and 5)		
O=c1[nH]c2nccc(-c3cccc(N4CCNCC4)c3)c2[nH]1 [Example 2]	0.316 to 1 µM	0.501 µM	> 1 µM	10 µM	2	F (a ratio of between 1 and 5)		
CN(C)Cc1cccc(-c2ccnc3[nH]c(=O)[nH]c23)c1 [Example 3]	0.316 to 1 µM	0.794 µM	> 1 µM	5.01 µM	1	F (a ratio of between 1 and 5)		
O=C1Cc2c(-c3cccc(N4CCNCC4)c3)ccnc2N1 [Example 4]	0.1 to 0.316 µM	0.251 µM	> 1 µM	5.01 µM	8	E (a ratio of between 5 and 10)		
CC1C(=O)Nc2nccc(-c3cccc(N4CCNCC4)c3)c21 (stereo not drawn) [Example 5]	0.0316 to 0.1 µM	0.0794 µM	0.316 to 1 µM	0.794 µM	4	F (a ratio of between 1 and 5)		
O=c1[nH]c2nccc(-c3cccc(N4CCNCC4)c3)c2o1 [Example 6]	> 1 µM	1 µM	> 1 µM	10 µM	2	F (a ratio of between 1 and 5)		
O=c1[nH]c2nccc(-c3cc(F)cc(N4CCNCC4)c3)c2[nH]1 [Example 7]	0.1 to 0.316 µM	0.1 µM	> 1 µM	2.51 µM	2	F (a ratio of between 1 and 5)		
C[C@H]1CNCCN1c1cccc(-c2ccnc3[nH]c(=O)[nH]c23)c1 [Example 8, 7-[3-[(2S)-2-methylpiperazin-1-yl]phenyl]-1,3-dihydroimidazo[4,5-b]pyridin-2-one dihydrochloride]			> 1 µM	3.98 µM	2	F (a ratio of between 1 and 5)	0.316 to 1 µM	0.398 µM
COc1cc(-c2ccnc3[nH]c(=O)[nH]c23)cc(N2CCNCC2)c1 [Example 9]	> 1 µM	2 µM	> 1 µM	1.26 µM	1	G (a ratio of 0 to 1)		
O=c1[nH]c2nccc(-c3cc(Cl)cc(N4CCNCC4)c3)c2[nH]1 [Example 10]	0.316 to 1 µM	0.316 µM	> 1 µM	2 µM	1	F (a ratio of between 1 and 5)		
C[C@@H]1CN(c2cccc(-c3ccnc4[nH]c(=O)[nH]c34)c2)C[C@H](C)N1 [Example 11]	> 1 µM	2.51 µM	> 1 µM	6.31 µM	4	F (a ratio of between 1 and 5)		
O=c1[nH]c2nccc(-c3cccc(N4CCNCC4c4cccnc4)c3)c2[nH]1 (stereo not drawn) [Example 12]	> 1 µM	5.01 µM	> 1 µM	10 µM	1	G (a ratio of 0 to 1)		
O=c1[nH]c2nccc(-c3cccc(N4CCNCC4)n3)c2[nH]1 [Example 14]	0.1 to 0.316 µM	0.1 µM	0.316 to 1 µM	0.631 µM	2	F (a ratio of between 1 and 5)		
O=c1[nH]c2nccc(-c3cc(N4CCNCC4)ccc3F)c2[nH]1 [Example 15]	0.316 to 1 µM	0.501 µM	> 1 µM	10 µM	3	F (a ratio of between 1 and 5)		
O=c1[nH]c2nccc(-c3cc(N4CCNCC4)ccn3)c2[nH]1 [Example 16]	> 1 µM	6.31 µM	> 1 µM	10 µM	1	G (a ratio of 0 to 1)		
CN1CCN(c2cccc(-c3ccnc4[nH]c(=O)[nH]c34)c2)CC1 [Example 17]	> 1 µM	5.01 µM	> 1 µM	10 µM	2	F (a ratio of between 1 and 5)		
CC1C(=O)Nc2nccc(-c3cc(F)cc(N4CCNCC4)c3)c21 (stereo not drawn) [Example 18]	0.01 to 0.0316 µM	0.0251 µM	0.1 to 0.316 µM	0.2 µM	3	F (a ratio of between 1 and 5)		
CC1C(=O)Nc2nccc(-c3cccc(CN4CCNCC4)c3)c21 (stereo not drawn) [Example 19]	0.1 to 0.316 µM	0.2 µM	> 1 µM	2 µM	2	F (a ratio of between 1 and 5)		

— patent US20260035367A1 (Celgene Corporation, priority 2021, published 2026)
